Where two headings read alike, the source gives them in different places.
Experiments:
[1] = system: T-Rex 293 cell line SC3 cells having increased expression of androgen receptor protein due to exposure to doxycycline; experiment: Cellular growth inhibition assay, T-Rex 293 SC3 cells with doxycycline (CellTiter-Glo, 72 hours); format: cell-based; settings: T-Rex 293 SC3 cells with increased androgen receptor expression due to doxycycline (10 ng/mL)
How it was run: (§1)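 Doxycycline (10 ng/mL) was either included or omitted to toggle wild-type androgen receptor expression in SC3 cells, a T-Rex 293 clone, grown in stripped-serum, phenol red-free medium. After 72 hours with compound, viable cells were quantified by CellTiter-Glo 2.0.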

[2] = system: T-Rex 293 cell line SC3 cells lacking increased expression of androgen receptor protein; experiment: Cellular growth inhibition assay, T-Rex 293 SC3 cells without doxycycline (CellTiter-Glo, 72 hours); format: cell-based; settings: T-Rex 293 cell line SC3 cells not exposed to doxycycline (lacking increased androgen receptor expression)
How it was run: as §1

VCaP cells = experiment: Cellular growth inhibition assay for VCaP cells (CellTiter-Glo, 72 hours); format: cell-based, human
How it was run: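 Luminescent viability signal after 72 h of compound exposure gave GI50 values by four-parameter nonlinear regression. Compounds were added in 0.5% DMSO to cells plated 24 h earlier at 5000/well in DMEM containing 10% FBS.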

| SMILES | GI50 [1] | GI50 [2] | GI50 (VCaP cells) | GI50 ([1]; 72 h) | GI50 ([2]; 72 h) | GI50 (VCaP cells; Homo sapiens, VCaP, 72 h) |
| --- | --- | --- | --- | --- | --- | --- |
| Cc1sc2c(c1C)C(c1ccc(N3CCC4(CC3)CCN(c3ccc(C(=O)N[C@H]5CC[C@H](Oc6ccc(C#N)c(Cl)c6)CC5)nn3)C4)cc1)=NC(C(F)(F)F)c1nnc(C)n1-2 (single isomer, unassigned) [I-720] | > 3000 nM | > 3000 nM | > 3000 nM | – | – | – |
| Cc1sc2c(c1C)C(c1ccc(OC3CC4(CCN(c5ccc(C(=O)N[C@H]6CC[C@H](Oc7ccc(C#N)c(Cl)c7)CC6)nn5)CC4)C3)nc1)=NC1(CC1)c1nnc(C)n1-2 [I-443] | – | – | – | < 500 nM | > 3000 nM | < 500 nM |
| Cc1sc2c(c1C)C(c1ccc(OC3CCC4(C3)CN(c3ccc(C(=O)N[C@H]5CC[C@H](Oc6ccc(C#N)c(Cl)c6)CC5)nn3)CCO4)cc1)=NC1(CC1)c1nnc(C)n1-2 (stereo partly drawn) [I-508] | < 500 nM | > 3000 nM | < 500 nM | – | – | – |
| Cc1sc2c(c1C)C(c1ccc(CCCC3CCCN(c4ccc(C(=O)N[C@H]5CC[C@H](Oc6ccc(C#N)c(Cl)c6)CC5)nn4)CC3)nc1)=N[C@@H](C)c1nnc(C)n1-2 (stereo partly drawn) [I-672] | < 500 nM | < 500 nM | < 500 nM | – | – | – |
| Cc1sc2c(c1C)C(c1ccc(N3CCC(CN4CCN(c5ccc(C(=O)N[C@H]6CC[C@H](Oc7ccc(C#N)c(Cl)c7)CC6)nn5)CC4)CC3)cc1)=NC1(CC1)c1nnc(C)n1-2 [I-480] | – | – | – | < 500 nM | 500 to 1500 nM | < 500 nM |
| Cc1sc2c(c1C)C(c1ccc(N3CCC(CCc4ccc(C(=O)N[C@H]5CC[C@H](Oc6ccc(C#N)c(Cl)c6)CC5)nn4)CC3)cc1)=N[C@@H](C)c1nnc(C)n1-2 [I-596] | – | – | – | < 500 nM | < 500 nM | < 500 nM |
| Cc1sc2c(c1C)C(c1ccc(OC3(C)CC4(CN(c5ccc(C(=O)N[C@H]6CC[C@H](Oc7ccc(C#N)c(Cl)c7)CC6)nn5)C4)C3)cc1)=N[C@@H](Cc1ncco1)c1nnc(C)n1-2 [I-468] | – | – | – | < 500 nM | < 500 nM | < 500 nM |
| Cc1sc2c(c1C)C(c1ccc(CC3CC4(CCCN(c5ccc(C(=O)N[C@H]6CC[C@H](Oc7ccc(C#N)c(Cl)c7)CC6)nn5)C4)C3)cc1)=NCc1nnc(C)n1-2 (stereo partly drawn) [I-488] | < 500 nM | – | < 500 nM | – | > 3000 nM | – |
| Cc1sc2c(c1C)C(c1ccc(N3CCC4(CCN(c5ccc(C(=O)N[C@H]6CC[C@H](Oc7ccc(C#N)c(Cl)c7)CC6)nn5)CC4)C3)cc1)=N[C@@H](C)c1nnc(C)n1-2 [I-641] | – | – | – | < 500 nM | < 500 nM | < 500 nM |
| Cc1sc2c(c1C)C(c1ccc(C3CCC(CC4CCN(c5ccc(C(=O)N[C@H]6CC[C@H](Oc7ccc(C#N)c(Cl)c7)CC6)nn5)CC4)CC3)cc1)=NC1(CC1)c1nnc(C)n1-2 (stereo partly drawn) [I-757] | < 500 nM | < 500 nM | < 500 nM | – | – | – |
| Cc1sc2c(c1C)C(c1ccc(C#CC3CC4(CCCN(c5ccc(C(=O)N[C@H]6CC[C@H](Oc7ccc(C#N)c(Cl)c7)CC6)nn5)C4)C3)cn1)=NC(C)c1nnc(C)n1-2 (stereo partly drawn) [I-456] | < 500 nM | 500 to 1500 nM | 500 to 1500 nM | – | – | – |
| Cc1sc2c(c1C)C(c1ccc(COC3CCC4(CCCN(c5ccc(C(=O)N[C@H]6CC[C@H](Oc7ccc(C#N)c(Cl)c7)CC6)nn5)C4)C3)cc1)=N[C@@H](C)c1nnc(C)n1-2 (stereo partly drawn) [I-625] | < 500 nM | < 500 nM | < 500 nM | – | – | – |
| Cc1sc2c(c1C)C(c1ccc(OC3CC4(C3)CC3(CCN(c5ccc(C(=O)N[C@H]6CC[C@H](Oc7ccc(C#N)c(Cl)c7)CC6)nn5)CC3)C4)cc1)=NCc1nnc(C)n1-2 [I-453] | – | – | – | < 500 nM | > 3000 nM | < 500 nM |
| Cc1sc2c(c1C)C(c1ccc(COC3CCC4(C3)CN(c3ccc(C(=O)N[C@H]5CC[C@H](Oc6ccc(C#N)c(Cl)c6)CC5)nn3)CCO4)cc1)=N[C@@H](C)c1nnc(C)n1-2 (stereo partly drawn) [I-586] | < 500 nM | – | 500 to 1500 nM | – | < 500 nM | – |
| Cc1sc2c(c1C)C(c1ccc(OC3CN(C(C)(C)C4CCN(c5ccc(C(=O)N[C@H]6CC[C@H](Oc7ccc(C#N)c(Cl)c7)CC6)nn5)CC4)C3)cc1)=N[C@@H](C)c1nnc(C)n1-2 [I-587] | – | – | – | < 500 nM | < 500 nM | 1500 to 3000 nM |
| Cc1sc2c(c1C)C(c1ccc(OC3CC4(CCN(c5ccc(C(=O)N[C@H]6CC[C@H](Oc7ccc(C#N)c(Cl)c7)CC6)nn5)CC4)C3)nc1)=N[C@@H](C)c1nnc(C)n1-2 [I-462] | < 500 nM | > 3000 nM | < 500 nM | – | – | – |
| Cc1sc2c(c1C)C(c1ccc(C#CC3CC4(CCCN(c5ccc(C(=O)N[C@H]6CC[C@H](Oc7ccc(C#N)c(Cl)c7)CC6)nn5)C4)C3)nc1)=N[C@@H](C)c1nnc(C)n1-2 (stereo partly drawn) [I-459] | – | – | – | < 500 nM | < 500 nM | < 500 nM |
| CC[C@@H]1N=C(c2ccc(N3CC4(CC(CCc5ccc(C(=O)N[C@H]6CC[C@H](Oc7ccc(C#N)c(Cl)c7)CC6)nn5)C4)C3)cc2)c2c(sc(C)c2C)-n2c(C)nnc21 [I-611] | – | – | – | < 500 nM | > 3000 nM | < 500 nM |
| Cc1sc2c(c1C)C(c1ccc(CC3CCC4(CCCN(c5ccc(C(=O)N[C@H]6CC[C@H](Oc7ccc(C#N)c(Cl)c7)CC6)nn5)C4)C3)cc1)=N[C@@H](C)c1nnc(C)n1-2 (stereo partly drawn) [I-585] | < 500 nM | > 3000 nM | > 3000 nM | – | – | – |
| Cc1sc2c(c1C)C(c1ccc(COC3CCC4(C3)CN(c3ccc(C(=O)N[C@H]5CC[C@H](Oc6ccc(C#N)c(Cl)c6)CC5)nn3)CCO4)cc1)=N[C@@H](C)c1nnc(C)n1-2 (stereo partly drawn) [I-559] | < 500 nM | < 500 nM | < 500 nM | – | – | – |
| CCNC(=O)C[C@@H]1N=C(c2ccc(N3CC(OC4CCN(c5ccc(C(=O)N[C@H]6CC[C@H](Oc7ccc(C#N)c(Cl)c7)CC6)nn5)CC4)C3)cc2)c2c(sc(C)c2C)-n2c(C)nnc21 [I-57] | – | – | – | < 500 nM | < 500 nM | < 500 nM |
| Cc1sc2c(c1C)C(c1ccc(N3CC(C4CCC(Cc5ccc(C(=O)N[C@H]6CC[C@H](Oc7ccc(C#N)c(Cl)c7)CC6)nn5)CC4)C3)cc1)=N[C@@H](Cc1ncco1)c1nnc(C)n1-2 (stereo partly drawn) [I-772] | – | – | – | < 500 nM | 500 to 1500 nM | < 500 nM |
| Cc1sc2c(c1C)C(c1ccc(N3CC(C4CCN(c5ccc(C(=O)N[C@H]6CC[C@H](Oc7ccc(C#N)c(Cl)c7)CC6)nn5)C4)C3)cc1)=NC1(CC1)c1nnc(C)n1-2 (stereo partly drawn) [I-551] | < 500 nM | > 3000 nM | < 500 nM | – | – | – |
| Cc1sc2c(c1C)C(c1ccc(N3CCC4CN(c5ccc(C(=O)N[C@H]6CC[C@H](Oc7ccc(C#N)c(Cl)c7)CC6)nn5)CCC4C3)cc1)=NC1(CC1)c1nnc(C)n1-2 (stereo partly drawn) [I-564] | < 500 nM | 500 to 1500 nM | > 3000 nM | – | – | – |
| Cc1sc2c(c1C)C(c1ccc(C3CCC4(CCN(c5ccc(C(=O)N[C@H]6CC[C@H](Oc7ccc(C#N)c(Cl)c7)CC6)nn5)CC4)C3)cc1)=NC1(CC1)c1nnc(C)n1-2 (stereo partly drawn) [I-519] | – | – | – | < 500 nM | > 3000 nM | < 500 nM |
| Cc1sc2c(c1C)C(c1ccccc1OC1CC3(CCN(c4ccc(C(=O)N[C@H]5CC[C@H](Oc6ccc(C#N)c(Cl)c6)CC5)nn4)CC3)C1)=N[C@@H](C)c1nnc(C)n1-2 [I-651] | – | – | – | > 3000 nM | > 3000 nM | < 500 nM |
| CCNC(=O)C[C@@H]1N=C(c2ccc(OC3CC(N(C)C4CCN(c5ccc(C(=O)N[C@H]6CC[C@H](Oc7ccc(C#N)c(Cl)c7)CC6)nn5)CC4)C3)cc2)c2c(sc(C)c2C)-n2c(C)nnc21 (stereo partly drawn) [I-46] | – | – | – | < 500 nM | 500 to 1500 nM | < 500 nM |

— US20260109707A1, “HETEROBIFUNCTIONAL COMPOUNDS AND METHODS OF TREATING DISEASE” (Halda Therapeutics OpCo. Inc., priority 2022, published 2026)
